Results: patent publication US20230263822A1, “MODULATION OF FACTOR 11 EXPRESSION” (Ionis Pharmaceuticals, Inc., priority 2008, published 2023)

Columns and labels:
Type in all cases: in vivo, BALB/c mice
blood coagulation [1] = test: PT and aPTT, combination with Apixaban (Example 20)
Protocol: PT and aPTT were measured using PPP from mice treated with ISIS 404071 in combination with Apixaban. In the first cohort, ISIS 404071 was administered subcutaneously to BALB/c mice at a dosage of 25 mg/kg twice a week for 3 weeks. Plasma was collected from these mice 5 days after receiving the last dose of ISIS 404071. In the second cohort, Apixaban was administered subcutaneously to BALB/c mice at a dosage of 6 mg/kg twice daily for three days. Plasma was collected from these mice 20 minutes after receiving the last dose of Apixaban. In the third cohort, ISIS 404071 was administered subcutaneously to BALB/c mice at a dosage of 20 mg/kg twice a week for 3 weeks, and Apixaban was administered subcutaneously at a dosage of 6 mg/kg twice daily on the last three days of ISIS 404071 treatment. Plasma was collected from these mice 20 minutes after receiving the last dose of Apixaban. In a fourth cohort, PBS was administered subcutaneously twice a week for three weeks, as a control. Plasma was collected 5 days after the last dose of PBS.
PT and aPTT values provided in Table 32 are reported as International Normalized Ratio (INR) values. […] However, Apixaban and Apixaban combined with ISIS 404071 increased PT. Also shown in Table 32, Apixaban, ISIS 404071, and ISIS 404071 combined with Apixaban increase aPTT.

platelet factor-4 (PF-4) [2] = test: Factor 7a protein antidote: PF-4 in FeCl3 induced VT model (Example 24); conditions: ISIS 404071 20 mg/kg s.c. twice a week for 3 weeks; human Factor 7a 5 μg/kg fifteen minutes before FeCl3 where given
Protocol: The effect of human Factor 7a (Factor VIIa) protein as an antidote for ISIS 404071 was tested in BALB/c mice. […] Thrombus formation was induced with FeCl3 in all of the mice except the first control group. Fifteen minutes before FeCl3 treatment, the first experimental group was treated with 5 μg/kg of human Factor 7a protein antidote (product no. 407act, American Diagnostica Inc.). Two days after their last dose, all mice were anesthetized with 150 mg/kg of ketamine mixed with 10 mg/kg of xylazine administered by intraperitoneal injection.
In mice undergoing FeCl3 treatment, thrombus formation was induced by applying a piece of filter paper (2×4 mm) pre-saturated with 10% FeCl3 solution directly on the vena cava. After 3 minutes of exposure, the filter paper was removed. Thirty minutes after the filter paper application, a fixed length of the vein containing the thrombus was dissected out for platelet analysis.
Real-time PCR quantification of platelet factor-4 (PF-4) was used to quantify platelets in the vena cava as a measure of thrombus formation. Results are presented as a percentage of PF-4 in antidote treated and untreated mice, as compared to the two PBS-treated control groups.

platelet factor-4 (PF-4) [3] = test: Thrombus formation by PF-4, FeCl3 induced VT model, combination with PLAVIX (Example 26); conditions: ISIS 404071 20 mg/kg, PLAVIX 0 mg/kg
Protocol: The combination of ISIS 404071 and PLAVIX was evaluated in the FeCl3 induced VT mouse model. Four groups of eight BALB/c mice, weighing approximately 25 g each, were treated with 6.25 mg/kg, 12.50 mg/kg, 25.00 mg/kg, or 50.00 mg/kg of PLAVIX. Mice were given two doses of PLAVIX on day one and one dose of PLAVIX on day two, two hours before surgery.
(§1) After the last dose of ISIS 404071, mice were treated with 6.25 mg/kg, 12.50 mg/kg, 25.00 mg/kg, or 50.00 mg/kg of PLAVIX. Two doses of PLAVIX were administered to the mice on day one and one dose of PLAVIX was administered on day two, two hours before surgery.
Two control groups of eight BALB/c mice, weighing approximately 25 g each, were not treated with ISIS 404071 or PLAVIX. […] Thrombus formation was induced with FeCl3 in all of the mice except the first […] control groups. All mice were anesthetized with 150 mg/kg of ketamine mixed with 10 mg/kg of xylazine administered by intraperitoneal injection.
After 3 minutes of exposure, the filter paper was removed. Thirty minutes after the filter paper application, a fixed length of the vein containing the thrombus was dissected out for platelet analysis.
Real-time PCR quantification of PF-4 was used to quantify platelets in the vena cava as a measure of thrombus formation. […] Therefore, the combination of anti-platelet therapy with Factor 11 ASO increases antithrombotic activity. Data is presented as percent of PF-4 mRNA as compared to the PBS+ FeCl3 control.

[4] = Tail bleeding assay, combination with PLAVIX (Example 27); conditions: ISIS 404071 20 mg/kg, PLAVIX 0
Protocol: as §1, with “ISIS 404071 was administered subcutaneously at a dosage of 20 mg/kg twice a week for 3 weeks to 5 groups of eight BALB/c mice. After” for “After”, “with 0 mg/kg,” for “with”, “bleeding.” for “surgery.”
Two hours after receiving their final treatment, mice were placed in a tail bleeding chamber. […] The blood was collected for the course of 40 minutes.

blood coagulation [5] = test: Time course of aPTT after one dose (Example 29); conditions: for aPTT INR: values approximate
Protocol: One dose of 50 mg/kg ISIS 404071 was administered subcutaneously to BALB/c mice. Following ISIS 404071 administration, mice were sacrificed at 12 hours, 1 day, 2 days, 3 days, 4 days, 7 days, 14 days, 28 days, and 56 days. Whole liver was collected for RNA analysis and PPP was collected for aPTT analysis. A control group of mice was treated with one subcutaneous dose of PBS.
aPTT values provided in Table 43 are reported as International Normalized Ratio (INR) values. INR values for aPTT were determined by dividing the aPTT value for ISIS 404071 treated mice by the aPTT for the PBS treated group. This ratio was then raised to the power of the International Sensitivity Index (ISI) of the tissue factor used.

[6] = BALB/c mice, ISIS 404071 25 or 20 mg/kg, Apixaban 6 mg/kg twice daily
[7] = ISIS 404071 alone 25 mg/kg s.c. twice a week for 3 weeks, Apixaban alone 6 mg/kg s.c. twice daily for three days, combination 20 mg/kg + 6 mg/kg

In the case of “ISIS 404071: antisense oligonucleotide targeted to murine Factor 11 mRNA, TGGTAATCCACTTTCAGAGG, target start site 869 (chemistry not given here)”, the “PT” value (blood coagulation [1]; [6]) is reported as “not significantly affected”, the “aPTT” value (blood coagulation [1]; [6]) is reported as “increase aPTT” and the “PT INR” value (blood coagulation [1]; [7]) is reported as 0.95 INR. The “aPTT INR” value (blood coagulation [1]; [7]) was 1.31 INR, the “PF-4 in vena cava, percentage as compared to PBS controls (thrombus formation)” value (platelet factor-4 (PF-4) [2]) was 18% and the “PF-4 mRNA, percent as compared to the PBS + FeCl3 control (thrombus formation)” value (platelet factor-4 (PF-4) [3]; + FeCl3) was 40%. The “PF-4 mRNA, percent as compared to the PBS + FeCl3 control (thrombus formation)” value (platelet factor-4 (PF-4) [3]; − FeCl3) was 27%, the “Blood (tail bleeding, collected for 40 minutes)” value [4] was 0 g and the “aPTT over time” value (blood coagulation [5]; BALB/c mice, one s.c. dose of 50 mg/kg) was “progressive decrease of aPTT until day 4 and then progressive increase to pre-treatment levels from day 7 to day 28”. The “aPTT INR” value (blood coagulation [5]; day 1 after one dose of 50 mg/kg s.c.) was about 1.02 INR, the “aPTT INR” value (blood coagulation [5]; day 2 after one dose of 50 mg/kg s.c.) was about 1.12 INR and the “aPTT INR” value (blood coagulation [5]; day 3 after one dose of 50 mg/kg s.c.) was about 1.29 INR. For the same substance, the “aPTT INR” value (blood coagulation [5]; day 4 after one dose of 50 mg/kg s.c.) was about 1.30 INR, the “aPTT INR” value (blood coagulation [5]; day 7 after one dose of 50 mg/kg s.c.) was about 1.25 INR and the “aPTT INR” value (blood coagulation [5]; day 14 after one dose of 50 mg/kg s.c.) was about 1.11 INR. The “aPTT INR” value (blood coagulation [5]; day 28 after one dose of 50 mg/kg s.c.) was about 1.02 INR.
